From patent publication US20230083012A1, “DIHYDROPYRIMIDINE DERIVATIVES AND USES THEREOF IN THE TREATMENT OF HBV INFECTION OR OF HBV-INDUCED DISEASES” (priority 2019, published 2023)

How the values were obtained:
HBV = assay: Anti-HBV activity in HepG2.2.15 cells (HBV DNA in culture medium by qPCR); type: cell-based; conditions: Hepatitis B virus, HepG2.2.15, 144 h, HepG2.2.15 cells, 6 days treatment, HBV DNA in culture medium quantified by real-time PCR; read-out: EC50
In short: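 Secreted HBV DNA was measured by real-time PCR after 6-day compound exposure of HepG2.2.15 cells (2% FBS, 37 °C, re-dosed after 3 days), giving EC50 from 8-point 1:3 series starting at 10 or 1 uM. Cytotoxicity (CC50) run separately at lower cell density, top 100 uM.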

[1] = Cytotoxicity determination in HepG2.2.15 cells (CCK-8 cell viability); type: cell-based; conditions: human, 6 days treatment, CCK-8 assay, highest concentration 100 uM
In short: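 Viability measured by CCK-8 absorbance (450 nm, 630 nm reference, 2.5 h at 37° C) after six days of treatment, medium and compound renewed on day 3. Top concentration 100 uM, eight threefold dilutions in triplicate; cells plated at 5,000/well in 2% FBS medium; CC50 derived.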

In the case of `COC(=O)C1=C(CN2CC(F)(F)[C@@H]3[C@H]2CON3CCC(C)(C)C(=O)O)NC(c2nccs2)=N[C@H]1c1cccc(F)c1C` (single isomer, unassigned) [Compound 160], the EC50 (HBV) is reported as 0.014 µM and the CC50 at 6 days [1] is reported as 100 µM.

In the case of `COC(=O)C1=C(CN2CC(F)(F)[C@@H]3[C@H]2CON3CCC(C)(C)C(=O)O)NC(c2nccs2)=N[C@H]1c1ccc(F)c(F)c1C` (single isomer, unassigned) [Compound 161, (cis)-4-(4-((6-(3,4-difluoro-2-methylphenyl)-5-(methoxycarbonyl)-2-(thiazol-2-yl)-3,6-dihydropyrimidin-4-yl)methyl)-6,6-difluorohexahydro-1H-pyrrolo[3,2-c]isoxazol-1-yl)-2,2-dimethylbutanoic acid], the EC50 (HBV) is reported as 0.008 µM and the CC50 at 6 days [1] is reported as greater than 50 µM.

`COC(=O)C1=C(CN2CC(F)(F)[C@@H]3[C@H]2CON3CCC(C)(C)C(=O)O)NC(c2nccs2)=N[C@H]1c1ccc(F)c(F)c1Cl` (single isomer, unassigned) [Compound 162, (cis)-4-(4-((6-(2-chloro-3,4-difluorophenyl)-5-(methoxycarbonyl)-2-(thiazol-2-yl)-3,6-dihydropyrimidin-4-yl)methyl)-6,6-difluorohexahydro-1H-pyrrolo[3,2-c]isoxazol-1-yl)-2,2-dimethylbutanoic acid] showed an EC50 (HBV) of 0.005 µM and a CC50 at 6 days [1] of 50 µM.

Work on `CCOC(=O)C1=C(CN2CC(F)(F)[C@@H]3[C@H]2CON3CCC(C)(C)C(=O)O)NC(c2nccs2)=N[C@H]1c1ccc(F)c(F)c1Cl` (single isomer, unassigned) [Compound 163, (cis)-4-(4-((6-(2-chloro-3,4-difluorophenyl)-5-(ethoxycarbonyl)-2-(thiazol-2-yl)-3,6-dihydropyrimidin-4-yl)methyl)-6,6-difluorohexahydro-1H-pyrrolo[3,2-c]isoxazol-1-yl)-2,2-dimethylbutanoic acid] yielded an EC50 (HBV) of 0.002 µM and a CC50 at 6 days [1] of 45.6 µM.

`CCOC(=O)C1=C(CN2CC(F)(F)[C@@H]3[C@H]2CON3CCC(C)(C)C(=O)O)NC(c2nccs2)=N[C@@H]1c1ccc(F)c(F)c1C` (single isomer, unassigned) [Compound 164, (cis)-4-(4-((6-(3,4-difluoro-2-methylphenyl)-5-(ethoxycarbonyl)-2-(thiazol-2-yl)-3,6-dihydropyrimidin-4-yl)methyl)-6,6-difluorohexahydro-1H-pyrrolo[3,2-c]isoxazol-1-yl)-2,2-dimethylbutanoic acid] showed an EC50 (HBV) of 0.003 µM and a CC50 at 6 days [1] greater than 25 µM.

Work on `CCOC(=O)C1=C(CN2CC(F)(F)[C@@H]3[C@H]2CON3CCC(C)(C)C(=O)O)NC(c2nc(C)cs2)=N[C@H]1c1cccc(F)c1C` (single isomer, unassigned) [Compound 165, (cis)-4-(4-((5-(ethoxycarbonyl)-6-(3-fluoro-2-methylphenyl)-2-(4-methylthiazol-2-yl)-3,6-dihydropyrimidin-4-yl)methyl)-6,6-difluorohexahydro-1H-pyrrolo[3,2-c]isoxazol-1-yl)-2,2-dimethylbutanoic acid] yielded an EC50 (HBV) of 0.008 µM and a CC50 at 6 days [1] greater than 50 µM.

For `CCOC(=O)C1=C(CN2CC(F)(F)[C@@H]3[C@H]2CON3CCC(C)(C)C(=O)O)NC(c2nccs2)=N[C@@H]1c1ccc(F)nc1C` (single isomer, unassigned) [Compound 166, 4-((cis)-4-((5-(ethoxycarbonyl)-6-(6-fluoro-2-methylpyridin-3-yl)-2-(thiazol-2-yl)-3,6-dihydropyrimidin-4-yl)methyl)-6,6-difluorohexahydro-1H-pyrrolo[3,2-c]isoxazol-1-yl)-2,2-dimethylbutanoic acid], the EC50 (HBV) was 0.059 µM and the CC50 at 6 days [1] was greater than 100 µM.

Work on `COC(=O)C1=C(CN2CC(F)(F)[C@@H]3[C@H]2CON3CCC(C)(C)C(=O)O)NC(c2nccs2)=N[C@H]1c1cccc(F)c1F` (single isomer, unassigned) [Compound 167, 4-((cis)-4-((6-(2,3-difluorophenyl)-5-(methoxycarbonyl)-2-(thiazol-2-yl)-3,6-dihydropyrimidin-4-yl)methyl)-6,6-difluorohexahydro-1H-pyrrolo[3,2-c]isoxazol-1-yl)-2,2-dimethylbutanoic acid] yielded an EC50 (HBV) of 0.0163 µM and a CC50 at 6 days [1] greater than 100 µM.

With `COC(=O)C1=C(CN2CC(F)(F)[C@@H]3[C@H]2CON3CCC(C)(C)C(=O)O)NC(c2nccs2)=N[C@H]1c1ccc(F)cc1Cl` (single isomer, unassigned) [Compound 168, 4-((cis)-4-((6-(2-chloro-4-fluorophenyl)-5-(methoxycarbonyl)-2-(thiazol-2-yl)-3,6-dihydropyrimidin-4-yl)methyl)-6,6-difluorohexahydro-1H-pyrrolo[3,2-c]isoxazol-1-yl)-2,2-dimethylbutanoic acid] the EC50 (HBV) was 0.009 µM and the CC50 at 6 days [1] was greater than 100 µM.

Work on `CCOC(=O)C1=C(CN2CC(F)(F)[C@@H]3[C@H]2CON3CCC(C)(C)C(=O)O)NC(c2nccs2)=N[C@H]1c1ccc(F)cc1Cl` (single isomer, unassigned) [Compound 169, 4-((cis)-4-((6-(2-chloro-4-fluorophenyl)-5-(ethoxycarbonyl)-2-(thiazol-2-yl)-3,6-dihydropyrimidin-4-yl)methyl)-6,6-difluorohexahydro-1H-pyrrolo[3,2-c]isoxazol-1-yl)-2,2-dimethylbutanoic acid] yielded an EC50 (HBV) of 0.005 µM and a CC50 at 6 days [1] greater than 50 µM.

Compound `COC(=O)C1=C(CN2CC(F)(F)[C@@H]3[C@H]2CON3CCC(C)(C)C(=O)O)NC(c2nccs2)=N[C@H]1c1cccc(F)c1Cl` (single isomer, unassigned) [Compound 170, (cis)-4-(4-((6-(2-chloro-3-fluorophenyl)-5-(methoxycarbonyl)-2-(thiazol-2-yl)-3,6-dihydropyrimidin-4-yl)methyl)-6,6-difluorohexahydro-1H-pyrrolo[3,2-c]isoxazol-1-yl)-2,2-dimethylbutanoic acid] has an EC50 (HBV) of 0.008 µM and a CC50 at 6 days [1] greater than 25 µM.

In the case of `CCOC(=O)C1=C(CN2CC(F)(F)[C@@H]3[C@H]2CON3CCC(C)(C)C(=O)O)NC(c2nccs2)=NC1c1cccc(F)c1Cl` (single isomer, unassigned) [Compound 171, (cis)-4-(4-((6-(2-chloro-3-fluorophenyl)-5-(ethoxycarbonyl)-2-(thiazol-2-yl)-3,6-dihydropyrimidin-4-yl)methyl)-6,6-difluorohexahydro-1H-pyrrolo[3,2-c]isoxazol-1-yl)-2,2-dimethylbutanoic acid], the EC50 (HBV) is reported as 0.004 µM and the CC50 at 6 days [1] is reported as 32.3 µM.

`CCOC(=O)C1=C(CN2CC(F)(F)[C@@H]3[C@H]2CON3CC(C)(C)C(=O)O)NC(c2nccs2)=N[C@@H]1c1ccc(F)nc1C` (single isomer, unassigned) [Compound 172, 3-((cis)-4-((5-(Ethoxycarbonyl)-6-(6-fluoro-2-methylpyridin-3-yl)-2-(thiazol-2-yl)-3,6-dihydropyrimidin-4-yl)methyl)-6,6-difluorohexahydro-1H-pyrrolo[3,2-c]isoxazol-1-yl)-2,2-dimethylpropanoic acid] gave an EC50 (HBV) of 0.033 µM and a CC50 at 6 days [1] greater than 100 µM.

Compound `CCOC(=O)C1=C(CN2CC(F)(F)[C@@H]3[C@H]2CON3CCC(C)(C)C(=O)O)NC(c2nccs2)=N[C@H]1c1cccc(F)c1F` (single isomer, unassigned) [Compound 173, 4-((cis)-4-((6-(2,3-difluorophenyl)-5-(ethoxycarbonyl)-2-(thiazol-2-yl)-3,6-dihydropyrimidin-4-yl)methyl)-6,6-difluorohexahydro-1H-pyrrolo[3,2-c]isoxazol-1-yl)-2,2-dimethylbutanoic acid] has an EC50 (HBV) of 0.016 µM and a CC50 at 6 days [1] greater than 100 µM.

`CCOC(=O)C1=C(CN2CC(F)(F)[C@@H]3[C@H]2CON3CCC(C)(C)C(=O)O)NC(c2nc(C)cs2)=N[C@H]1c1ccc(F)c(F)c1F` (single isomer, unassigned) [Compound 174, 4-((cis)-4-((5-(ethoxycarbonyl)-2-(4-methylthiazol-2-yl)-6-(2,3,4-trifluorophenyl)-3,6-dihydropyrimidin-4-yl)methyl)-6,6-difluorohexahydro-1H-pyrrolo[3,2-c]isoxazol-1-yl)-2,2-dimethylbutanoic acid] gave an EC50 (HBV) of 0.015 µM and a CC50 at 6 days [1] greater than 50 µM.

Compound `CCOC(=O)C1=C(CN2CC(F)(F)[C@@H]3[C@H]2CON3CCC(C)(C)C(=O)O)NC(c2nccs2)=N[C@H]1c1ccc(F)c(F)c1F` (single isomer, unassigned) [Compound 175, 4-((cis)-4-((5-(Ethoxycarbonyl)-2-(thiazol-2-yl)-6-(2,3,4-trifluorophenyl)-3,6-dihydropyrimidin-4-yl)methyl)-6,6-difluorohexahydro-1H-pyrrolo[3,2-c]isoxazol-1-yl)-2,2-dimethylbutanoic acid] has an EC50 (HBV) of 0.008 µM and a CC50 at 6 days [1] greater than 50 µM.

For `CCOC(=O)C1=C(CN2CC(F)(F)[C@@H]3[C@H]2CON3CC(C)(C)C(=O)O)NC(c2nccs2)=N[C@H]1c1cccc(F)c1C` (single isomer, unassigned) [Compound 176], the EC50 (HBV) was 0.003 µM and the CC50 at 6 days [1] was 24.8 µM.

Work on `CCOC(=O)C1=C(CN2C[C@H](F)[C@H]3[C@@H]2CON3CCC(C)(C)C(=O)O)NC(c2nccs2)=N[C@H]1c1cccc(F)c1C` (single isomer, unassigned) [Compound 177] yielded an EC50 (HBV) of 0.015 µM and a CC50 at 6 days [1] of 24 µM.

For `CCOC(=O)C1=C(CN2CC(F)(F)[C@@H]3[C@H]2CON3C[C@@H](CC)C(=O)O)NC(c2nccs2)=N[C@H]1c1cccc(F)c1C` (single isomer, unassigned) [Compound 178A], the EC50 (HBV) was 0.0035 µM and the CC50 at 6 days [1] was greater than 50 µM.

For `CCOC(=O)C1=C(CN2CC(F)(F)[C@@H]3[C@H]2CON3C[C@H](CC)C(=O)O)NC(c2nccs2)=N[C@H]1c1cccc(F)c1C` (single isomer, unassigned) [Compound 178B], the EC50 (HBV) was 0.012 µM and the CC50 at 6 days [1] was greater than 50 µM.

`CCOC(=O)C1=C(CN2CC(F)(F)[C@@H]3CNC[C@@H]32)NC(c2nccs2)=N[C@H]1c1cccc(F)c1C` (single isomer, unassigned) [Compound 179] gave an EC50 (HBV) of 0.05 µM and a CC50 at 6 days [1] greater than 3.1 µM.
